Experimental findings from US20100152129A1 (priority 2008, published 2010) are described below.

This test deals with Panc-1 cell line. The test is described as follows: Gene expression profile using RTQ-PCR. Type of test: cell-based. The note with it: Panc1, RTQ-PCR. As for the experimental part:
The objective of the experiment was to evaluate the synergistic effect of drug combination (Gemcitabine with […]) as compared to individual use of the same. The synergistic effect of the compound or drug combination in the Panc-1 cell line was measured in terms of gene expression and expressed as fold changes as compared to the cell control with no drug treatment. Methodology: Cell lines treated with drugs (Gemcitabine, […] or both) were used for total RNA isolation using a commercial RNA extraction kit (Qiagen Corporation, Germany). […] This was followed by real time quantitative polymerase chain reaction (RTQ PCR) using gene specific primers and standard thermal program of initial denaturation at 95° C. for 5 mins and 40 cycles of 95° C. for 10 seconds, followed by […] for 30 seconds (Realplex PCR machine from Eppendorf, Germany). Quantitative measurement of products made during PCR cycles was normalized against a housekeeping gene (Actin) and used to measure the gene expression as fold changes as compared to respective control (FIG. 5).
`CN1CC[C@@H](c2c(O)cc(O)c3c(=O)cc(-c4ccccc4Cl)oc23)[C@@H]1CO.Cl`: the “CDK2 gene expression vs control cells with no drug treatment” value is −0.21 log 2 fold ratio, the “CDK4 gene expression vs control cells with no drug treatment” value is recorded as −0.44 log 2 fold ratio, the “CDK6 gene expression vs control cells with no drug treatment” value is −0.23 log 2 fold ratio and the “CDK8 gene expression vs control cells with no drug treatment” value is given as 0.11 log 2 fold ratio. The “DDIT4 gene expression vs control cells with no drug treatment” value is reported as −1.88 log 2 fold ratio, the “RRM1 gene expression vs control cells with no drug treatment” value came out at 0.18 log 2 fold ratio, the “RRM2 gene expression vs control cells with no drug treatment” value is on record as 0.16 log 2 fold ratio and the “p14 gene expression vs control cells with no drug treatment” value is given as −0.50 log 2 fold ratio. Further, the “p18 gene expression vs control cells with no drug treatment” value is −0.17 log 2 fold ratio and the “p27 gene expression vs control cells with no drug treatment” value was −0.60 log 2 fold ratio.

For the compound `Nc1ccn([C@@H]2O[C@H](CO)[C@@H](O)C2(F)F)c(=O)n1` [drawing 1], the “DLG5 gene expression vs control cells with no drug treatment” value is listed as −0.53 log 2 fold ratio, the “E2F1 gene expression vs control cells with no drug treatment” value is listed as 0.98 log 2 fold ratio, the “MAPK1 gene expression vs control cells with no drug treatment” value was −0.18 log 2 fold ratio and the “PDCD2 gene expression vs control cells with no drug treatment” value is reported as −1.27 log 2 fold ratio. For the same compound, the “POLB gene expression vs control cells with no drug treatment” value is listed as −0.94 log 2 fold ratio, the “PTK7 gene expression vs control cells with no drug treatment” value is reported as −0.53 log 2 fold ratio, the “PTN gene expression vs control cells with no drug treatment” value was determined as 0.68 log 2 fold ratio and the “RASA1 gene expression vs control cells with no drug treatment” value was −0.04 log 2 fold ratio. Besides, the “REV3L gene expression vs control cells with no drug treatment” value is listed as −0.28 log 2 fold ratio, the “SSTR2 gene expression vs control cells with no drug treatment” value was −1.17 log 2 fold ratio and the “STAT4 gene expression vs control cells with no drug treatment” value is on record as −0.54 log 2 fold ratio.

On to `CC[C@H](CO)Nc1nc(NCc2ccccc2)c2ncn(C(C)C)c2n1` [drawing 2], for which the “DLG5 gene expression vs control cells with no drug treatment” value is on record as −0.71 log 2 fold ratio, the “E2F1 gene expression vs control cells with no drug treatment” value worked out at 0.03 log 2 fold ratio, the “MAPK1 gene expression vs control cells with no drug treatment” value is −0.29 log 2 fold ratio and the “PDCD2 gene expression vs control cells with no drug treatment” value is −0.05 log 2 fold ratio. Besides, the “POLB gene expression vs control cells with no drug treatment” value is reported as −0.26 log 2 fold ratio, the “PTK7 gene expression vs control cells with no drug treatment” value is on record as 0.11 log 2 fold ratio, the “PTN gene expression vs control cells with no drug treatment” value is −0.28 log 2 fold ratio and the “RASA1 gene expression vs control cells with no drug treatment” value is listed as −0.41 log 2 fold ratio. Besides, the “REV3L gene expression vs control cells with no drug treatment” value is −0.27 log 2 fold ratio, the “SSTR2 gene expression vs control cells with no drug treatment” value is −0.37 log 2 fold ratio and the “STAT4 gene expression vs control cells with no drug treatment” value was −1.66 log 2 fold ratio.

As to `CN1CC[C@@H](c2c(O)cc(O)c3c(=O)cc(-c4ccc(C(F)(F)F)cc4Cl)oc23)[C@@H]1CO.Cl` [drawing 3], the “DLG5 gene expression vs control cells with no drug treatment” value is recorded as −1.01 log 2 fold ratio, the “E2F1 gene expression vs control cells with no drug treatment” value is −0.43 log 2 fold ratio, the “MAPK1 gene expression vs control cells with no drug treatment” value is 0.64 log 2 fold ratio and the “PDCD2 gene expression vs control cells with no drug treatment” value was 0.77 log 2 fold ratio. In addition, the “POLB gene expression vs control cells with no drug treatment” value was −0.05 log 2 fold ratio, the “PTK7 gene expression vs control cells with no drug treatment” value is recorded as 0.30 log 2 fold ratio, the “PTN gene expression vs control cells with no drug treatment” value is listed as 0.40 log 2 fold ratio and the “RASA1 gene expression vs control cells with no drug treatment” value was 0.10 log 2 fold ratio. Besides, the “REV3L gene expression vs control cells with no drug treatment” value is given as −0.13 log 2 fold ratio, the “SSTR2 gene expression vs control cells with no drug treatment” value is reported as −0.69 log 2 fold ratio and the “STAT4 gene expression vs control cells with no drug treatment” value is reported as −1.52 log 2 fold ratio.

In the case of `CN1CCC(c2c(O)cc(O)c3c(=O)cc(-c4ccccc4Cl)oc23)C(O)C1` (centres unmarked) [drawing 5], the “DLG5 gene expression vs control cells with no drug treatment” value is reported as −1.19 log 2 fold ratio, the “E2F1 gene expression vs control cells with no drug treatment” value is reported as −0.62 log 2 fold ratio, the “MAPK1 gene expression vs control cells with no drug treatment” value is −2.31 log 2 fold ratio and the “PDCD2 gene expression vs control cells with no drug treatment” value amounted to 0.50 log 2 fold ratio. Also, the “POLB gene expression vs control cells with no drug treatment” value is given as 0.34 log 2 fold ratio, the “PTK7 gene expression vs control cells with no drug treatment” value is on record as 0.16 log 2 fold ratio, the “PTN gene expression vs control cells with no drug treatment” value is reported as −0.24 log 2 fold ratio and the “RASA1 gene expression vs control cells with no drug treatment” value is given as −1.10 log 2 fold ratio. Further, the “REV3L gene expression vs control cells with no drug treatment” value is reported as −1.42 log 2 fold ratio, the “SSTR2 gene expression vs control cells with no drug treatment” value is −2.98 log 2 fold ratio and the “STAT4 gene expression vs control cells with no drug treatment” value is recorded as −1.39 log 2 fold ratio.

For `Nc1ccn([C@@H]2O[C@H](CO)[C@@H](O)C2(F)F)c(=O)n1` [drawing 10], the “CDK2 gene expression vs control cells with no drug treatment” value is listed as 0.50 log 2 fold ratio, the “CDK4 gene expression vs control cells with no drug treatment” value is listed as −0.93 log 2 fold ratio, the “CDK6 gene expression vs control cells with no drug treatment” value was −0.53 log 2 fold ratio and the “CDK8 gene expression vs control cells with no drug treatment” value amounted to 0.86 log 2 fold ratio. Besides, the “DDIT4 gene expression vs control cells with no drug treatment” value came to 1.01 log 2 fold ratio, the “RRM1 gene expression vs control cells with no drug treatment” value is reported as 0.25 log 2 fold ratio, the “p14 gene expression vs control cells with no drug treatment” value is reported as −0.17 log 2 fold ratio and the “p18 gene expression vs control cells with no drug treatment” value came to 1.06 log 2 fold ratio. Besides, the “p27 gene expression vs control cells with no drug treatment” value is −0.16 log 2 fold ratio.

Regarding `CC[C@H](CO)Nc1nc(NCc2ccccc2)c2ncn(C(C)C)c2n1` [drawing 11], the “CDK2 gene expression vs control cells with no drug treatment” value is given as 0.29 log 2 fold ratio, the “CDK4 gene expression vs control cells with no drug treatment” value is −0.06 log 2 fold ratio, the “CDK6 gene expression vs control cells with no drug treatment” value was 0.75 log 2 fold ratio and the “CDK8 gene expression vs control cells with no drug treatment” value was determined as 0.82 log 2 fold ratio. Moreover, the “DDIT4 gene expression vs control cells with no drug treatment” value is −0.84 log 2 fold ratio, the “RRM1 gene expression vs control cells with no drug treatment” value came out at 0.11 log 2 fold ratio, the “RRM2 gene expression vs control cells with no drug treatment” value was determined as 0.63 log 2 fold ratio and the “p14 gene expression vs control cells with no drug treatment” value is on record as −0.05 log 2 fold ratio. For the same compound, the “p18 gene expression vs control cells with no drug treatment” value worked out at 0.56 log 2 fold ratio and the “p27 gene expression vs control cells with no drug treatment” value is reported as −0.04 log 2 fold ratio.

Take `CN1CC[C@@H](c2c(O)cc(O)c3c(=O)cc(-c4ccc(C(F)(F)F)cc4Cl)oc23)[C@@H]1CO.Cl` [drawing 12]: the “CDK2 gene expression vs control cells with no drug treatment” value stood at 0.96 log 2 fold ratio, the “CDK4 gene expression vs control cells with no drug treatment” value amounted to 0.73 log 2 fold ratio, the “CDK6 gene expression vs control cells with no drug treatment” value is listed as 1.48 log 2 fold ratio and the “CDK8 gene expression vs control cells with no drug treatment” value is 0.20 log 2 fold ratio. The “DDIT4 gene expression vs control cells with no drug treatment” value is given as −0.31 log 2 fold ratio, the “RRM1 gene expression vs control cells with no drug treatment” value was −0.24 log 2 fold ratio, the “RRM2 gene expression vs control cells with no drug treatment” value was 0.04 log 2 fold ratio and the “p14 gene expression vs control cells with no drug treatment” value is given as −0.59 log 2 fold ratio. Moreover, the “p18 gene expression vs control cells with no drug treatment” value is listed as −0.12 log 2 fold ratio and the “p27 gene expression vs control cells with no drug treatment” value is listed as −0.30 log 2 fold ratio.
